In ChEMBL document CHEMBL2401642, “Sphingosine kinase 2 inhibitor SG-12 induces apoptosis via phosphorylation by sphingosine kinase 2” (2013):
Calls of active or inactive are those of the source. No cut-off for these calls is given here.

Key:
[1] = target: Sphingosine kinase 1 (Mus musculus) (UniProt Q8CI15); test: Activity at mouse SPHK1 transfected in mouse A20/2J cell lysates assessed as compound phosphorylation at 10 uM after 30 mins by autoradiography in presence of [gamma-32P]ATP; assay type: cell-free
[2] = target: T1, Sphingosine kinase 2 (Mus musculus) (UniProt Q9JIA7); test: Activity at mouse SPHK2 transfected in mouse A20/2J cell lysates assessed as compound phosphorylation at 10 uM after 30 mins by autoradiography in presence of [gamma-32P]ATP; assay type: cell-free
T1 sequence (whole entry): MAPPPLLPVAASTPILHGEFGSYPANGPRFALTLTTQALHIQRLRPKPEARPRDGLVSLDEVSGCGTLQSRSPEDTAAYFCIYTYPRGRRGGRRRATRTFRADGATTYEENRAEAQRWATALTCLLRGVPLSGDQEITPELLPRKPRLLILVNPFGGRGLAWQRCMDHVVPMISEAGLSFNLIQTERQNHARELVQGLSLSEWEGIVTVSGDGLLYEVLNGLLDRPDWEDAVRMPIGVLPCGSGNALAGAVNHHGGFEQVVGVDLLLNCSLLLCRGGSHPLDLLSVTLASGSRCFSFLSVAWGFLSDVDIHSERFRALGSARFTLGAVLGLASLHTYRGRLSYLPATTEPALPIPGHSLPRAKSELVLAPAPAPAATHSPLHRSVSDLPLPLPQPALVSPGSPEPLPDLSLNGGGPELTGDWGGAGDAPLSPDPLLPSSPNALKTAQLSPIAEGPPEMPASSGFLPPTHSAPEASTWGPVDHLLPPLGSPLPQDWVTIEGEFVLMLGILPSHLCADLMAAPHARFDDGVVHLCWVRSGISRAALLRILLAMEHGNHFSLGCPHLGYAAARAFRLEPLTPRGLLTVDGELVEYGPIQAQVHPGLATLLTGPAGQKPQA

[3] = target: Sphingosine kinase 1 (Mus musculus) (UniProt Q8CI15); test: Inhibition of mouse SPHK1 in mouse A20/2J cells using [3-3H]sphingosine as substrate assessed as [3H]S1P formation at 2 to 4 uM incubated for 5 mins prior to substrate addition measured after 5 mins; assay type: cell-based
[4] = target: T1, Sphingosine kinase 2 (Mus musculus); test: Inhibition of mouse SPHK2 in mouse A20/2J cells using [3-3H]sphingosine as substrate assessed as [3H]S1P formation at 2 to 4 uM incubated for 5 mins prior to substrate addition measured after 5 mins; assay type: cell-based
[5] = Induction of apoptosis in mouse SPHK2-transfected mouse A20/2J cells assessed as early apoptotic cells at 8 uM after 6 hrs by FITC-annexin V/propidium iodide staining-based flow cytometric analysis (reference value: 2.48%); assay type: functional
[6] = Induction of apoptosis in mouse SPHK2-transfected mouse A20/2J cells assessed as viable cells at 8 uM after 6 hrs by FITC-annexin V/propidium iodide staining-based flow cytometric analysis (reference value: 96.1%); assay type: functional; settings: read-out: Activity
[7] = Induction of apoptosis in mouse SPHK2-transfected mouse A20/2J cells assessed as late apoptotic cells at 8 uM after 6 hrs by FITC-annexin V/propidium iodide staining-based flow cytometric analysis (reference value: 1.12%); assay type: functional
[8] = Induction of apoptosis in mouse A20/2J cells assessed as early apoptotic cells at 8 uM after 6 hrs by FITC-annexin V/propidium iodide staining-based flow cytometric analysis (reference value: 2.58%); assay type: functional
[9] = Induction of apoptosis in mouse A20/2J cells assessed as viable cells at 8 uM after 6 hrs by FITC-annexin V/propidium iodide staining-based flow cytometric analysis (reference value: 95.9%); assay type: functional; settings: read-out: Activity
A20/2J [10] = test: Induction of apoptosis in mouse SPHK1-transfected mouse A20/2J cells assessed as increase in LDH release at 50 uM; assay type: functional, cell-based
A20/2J [11] = test: Induction of apoptosis in mouse A20/2J cells assessed as increase in LDH release at 10 uM up to 10 hrs; assay type: functional, cell-based
A20/2J [12] = test: Induction of apoptosis in mouse SPHK1-transfected mouse A20/2J cells assessed as increase in LDH release at 10 uM up to 10 hrs; assay type: functional, cell-based
[13] = Induction of apoptosis in mouse A20/2J cells assessed as activation of caspase 3 at 10 uM after 3 hrs by flow cytometric analysis; assay type: functional
[14] = Induction of apoptosis in mouse SPHK2-transfected mouse A20/2J cells assessed as activation of caspase 3 at 10 uM after 3 hrs by flow cytometric analysis; assay type: functional
A20/2J [15] = test: Induction of apoptosis in mouse SPHK2-transfected mouse A20/2J cells assessed as chromatin condensation at 8 uM after 18 hrs by transmission electron microscopy; assay type: functional, cell-based
A20/2J [16] = test: Induction of apoptosis in mouse SPHK2-transfected mouse A20/2J cells at 8 uM after 6 hrs by flow cytometric analysis in presence of pan-caspase inhibitor z-VAD-fmk; assay type: functional, cell-based
[17] = Induction of apoptosis in mouse N-terminal FLAG-tagged SPHK1-transfected mouse A20/2J cells at 10 uM after 9 hrs by LDH release assay; assay type: functional
[18] = Induction of apoptosis in mouse SPHK2 L219A mutant-transfected mouse A20/2J cells at 10 uM after 9 hrs by LDH release assay; assay type: functional
[19] = Induction of apoptosis in mouse SPHK2 G213D mutant-transfected mouse A20/2J cells at 10 uM after 9 hrs by LDH release assay; assay type: functional
[20] = Induction of apoptosis in mouse N-terminal FLAG-tagged SPHK2-transfected mouse A20/2J cells at 10 uM after 9 hrs by LDH release assay; assay type: functional
[21] = Induction of apoptosis in mouse SPHK2 R293E/R294E mutant-transfected mouse A20/2J cells at 10 uM after 9 hrs by LDH release assay; assay type: functional
A20/2J [22] = test: Induction of apoptosis in mouse SPHK2-transfected mouse A20/2J cells assessed as increase in LDH release at 50 uM; assay type: functional, cell-based
A20/2J [23] = test: Induction of apoptosis in mouse SPHK2-transfected mouse A20/2J cells assessed as increase in LDH release after 8 hrs; assay type: functional, cell-based
A20/2J [24] = test: Induction of apoptosis in mouse SPHK2-transfected mouse A20/2J cells assessed as increase in LDH release at 10 uM after 6 hrs; assay type: functional, cell-based
A20/2J [25] = test: Induction of apoptosis in mouse SPHK2-transfected mouse A20/2J cells assessed as increase in LDH release at 10 uM; assay type: functional, cell-based; settings: TDE = time-dependent effect
[26] = Induction of apoptosis in mouse A20/2J cells assessed as late apoptotic cells at 8 uM after 6 hrs by FITC-annexin V/propidium iodide staining-based flow cytometric analysis (reference value: 1.39%); assay type: functional
[27] = target: Sphingosine kinase 1 (Mus musculus) (UniProt Q8CI15); test: Inhibition of mouse SPHK1 in mouse A20/2J cells using [3-3H]sphingosine as substrate assessed as [3H]S1P formation at 8 uM incubated for 5 mins prior to substrate addition measured after 5 mins; assay type: cell-based
[28] = target: T1, Sphingosine kinase 2 (Mus musculus); test: Inhibition of mouse SPHK2 in mouse A20/2J cells using [3-3H]sphingosine as substrate assessed as [3H]S1P formation at 8 uM incubated for 5 mins prior to substrate addition measured after 5 mins; assay type: cell-based
[29] = Induction of apoptosis in mouse SPHK1-transfected mouse A20/2J cells assessed as activation of caspase 3 at 10 uM after 3 hrs by flow cytometric analysis; assay type: functional

Chain of Sphingosine kinase 1 (Mus musculus) (Q8CI15 whole entry): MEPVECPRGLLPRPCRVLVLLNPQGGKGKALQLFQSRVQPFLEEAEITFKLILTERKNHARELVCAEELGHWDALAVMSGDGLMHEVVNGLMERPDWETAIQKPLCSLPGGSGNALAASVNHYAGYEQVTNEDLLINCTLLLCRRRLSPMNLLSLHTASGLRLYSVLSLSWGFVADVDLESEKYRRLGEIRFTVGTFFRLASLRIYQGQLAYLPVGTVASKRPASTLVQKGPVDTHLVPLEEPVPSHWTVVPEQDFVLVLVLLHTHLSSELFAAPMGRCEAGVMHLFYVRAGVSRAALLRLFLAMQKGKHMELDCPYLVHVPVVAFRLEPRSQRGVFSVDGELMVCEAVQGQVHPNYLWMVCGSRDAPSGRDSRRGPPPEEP

## CCCCCCCCc1ccc(C[C@H](O)[C@@H](N)CO)cc1
[1]
  Activity: Active
[2]
  Activity: Active
[3]
  inhibition: inactive
[4]
  inhibition: inactive

## CCCCCCCCc1ccc(C[C@@H](O)[C@@H](N)CO)cc1
[5]
  Activity: 7.86%
[6]
  viability at 8 µM: 70.1%
[7]
  Activity: 19%
[8]
  Activity: 5.06%
[9]
  viability at 8 µM: 93.2%
A20/2J [10]
  Activity: Active
[1]
  Activity: Active
A20/2J [11]
  Activity: Active
A20/2J [12]
  Activity: Active
[13]
  Activity: 9.6%
[14]
  Activity: 31.8%
A20/2J [15]
  Activity: Active
A20/2J [16]
  Activity: Active
[2]
  Activity: Active
[17]
  Activity: 17.8%
[18]
  Activity: 20.3%
[19]
  Activity: 9.8%
[20]
  Activity: 18.4%
[21]
  Activity: 13.2%
A20/2J [22]
  Activity: Active
A20/2J [23]
  Activity: Dose-dependent effect
A20/2J [24]
  Activity: Active
A20/2J [25]
  Activity: tde
[26]
  Activity: 1.62%
[3]
  inhibition: Active
[4]
  inhibition: Active
[27]
  inhibition: 8%
[28]
  inhibition: 46%
[29]
  Activity: 6.4%
